Consider 27 compounds from patent publication US20070004715A1, “Novel spiro-quinuclidinyl derivatives for the treatment of central nervous system disorders” (priority 2005, published 2007).

The target in one test is T1, fluo-Aβ1-40 (Homo sapiens, UniProt P05067).
T1 construct: added 100 nM of fluo-Aβ1-40 in 100 μl
The test is described as follows: Aβ Aggregation Assay (Synthaloid plates, fluo-Aβ1-40). In kind it is biochemical. Particulars: 10 μM test compound, 100 nM fluo-Aβ1-40, 2.5 hr at room temperature; higher % = greater effectiveness at preventing aggregation. The method, then: Aβs are known to form aggregates leading to the formation of amyloid plaques that are characteristic of Alzheimer's disease.
This aggregation assay was validated using both ^125I-Aβ1-40 and fluo-Aβ1-40 in a buffer containing 50 mM HEPES, pH 7.4, 0.1% BSA, 10% FCS and protease inhibitors.
To each well of a 96-well Synthaloid plate was added 100 nM of fluo-Aβ1-40 in 100 μl. To each well was then added 10 μM of test compound. The plate was then allowed to incubate for 2.5 hr at room temperature. At the end of the incubation, unbound protein in the wells was removed by three washes using the buffer as described above. The amount of bound protein (which represents the amount of Aβ aggregation) was measured either by fluorescence measurements.
Higher fluorescence values relative to vehicle wells were interpreted as an indication of greater Aβ aggregation. […] Higher % values in the data in Table 4 below, below indicates greater effectiveness at preventing aggregation.
(§1) Both the Aβ aggregation assay as described in Example 55, particularly as run using the ^125I-Aβ1-40, and the % inhibition of AcH release assay as described in Example 56, were highly variable on a run-to-run basis. However, the relative activities of the tested compounds were reproducible.

For test [1], the system named is Synaptosomes from guinea pig hippocampus. As to the kind of experiment: % Inhibition of AcH Release Assay (K+-evoked 3H-acetylcholine release). The format is cell-based. Particulars: synaptosomes pre-treated with 10 μM test compound prior to 65 mM K+ stimulation. The method, then:
Synaptosomes from guinea pig hippocampus were incubated with 0.1 μM ^3H-choline and then subjected to repeated washes with buffer to remove unincorporated ^3H-choline. The synaptosomes were then treated with 65 mM K^+ for 30 seconds to elicit 3H-acetylcholine release.
To determine if a test compound will inhibit acetylcholine release, the synaptosomes were pre-treated with 10 μM of the test compound prior to the K+ stimulation. The decrease or increase in acetylcholine release was then measured by superfusion.
as §1

Structures can show the parent of a compound that is named as a salt.

T1 sequence (P05067 672-711): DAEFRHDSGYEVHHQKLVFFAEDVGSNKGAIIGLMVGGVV

Take `Cc1cc(O)ccc1N1C(=O)OC2(CN3CCC2CC3)C1=O` (stereo not drawn) [Compound 19, 3′-(4-hydroxy-2-methylphenyl)-quinuclidine-3-spiro-5′-oxazolidine-2′,4′-dione trifluoroacetate salt]: the “Aβ aggregation inhibition (%)” value on fluo-Aβ1-40 is reported as 0%. The “Inhibition of acetylcholine release” value in test [1] is on record as 27%.

In the case of `COc1ccc(N2C(=O)OC3(CN4CCC3CC4)C2=O)cc1` (stereo not drawn) [Compound 3, 3′-(4-methoxyphenyl)-quinuclidine-3-spiro-5′-oxazolidine-2′,4′-dione trifluoroacetate salt], the “Aβ aggregation inhibition (%)” value at fluo-Aβ1-40 was determined as 100%. In addition, the “Inhibition of acetylcholine release” value in test [1] came out at 27%.

With `COc1ccc(N2C(=N)CC3(CN4CCC3CC4)OC2=O)cc1` (stereo not drawn) [Compound 100, 3′-(4-methoxyphenyl)-quinuclidine-3-spiro-4′-iminooxan-2-ones trifluoroacetate salt], the “Aβ aggregation inhibition (%)” value on fluo-Aβ1-40 was determined as 48%. For the same compound, the “Inhibition of acetylcholine release” value in test [1] was determined as 34%.

With `COc1ccc(N2C(=O)OC3(CN4CCC3CC4)C2=O)c(C)c1` (stereo not drawn) [Compound 4, 3′-(4-methoxy-2-methylphenyl)-quinuclidine-3-spiro-5′-oxazolidine-2′,4′-dione trifluoroacetate salt], the “Aβ aggregation inhibition (%)” value on fluo-Aβ1-40 turned out to be 95%. In test [1], the “Inhibition of acetylcholine release” value is on record as 36%.

On to `O=C1OC2(CN3CCC2CC3)C(=O)N1c1cccc(Cl)c1` (stereo not drawn) [Compound 10, 3′-(3-chlorophenyl)-quinuclidine-3-spiro-5′-oxazolidine-2′,4′-dione trifluoroacetate salt], for which the “Aβ aggregation inhibition (%)” value on fluo-Aβ1-40 was determined as 50%. The “Inhibition of acetylcholine release” value in test [1] is recorded as 60%.

Turning to `Cc1cccc(N2C(=O)OC3(CN4CCC3CC4)C2=O)c1C` (stereo not drawn) [Compound 27, 3′-(2,3-dimethylphenyl)-quinuclidine-3-spiro-5′-oxazolidine-2′,4′-dione trifluoroacetate salt], on fluo-Aβ1-40, the “Aβ aggregation inhibition (%)” value is 35%. Besides, the “Inhibition of acetylcholine release” value in test [1] amounted to 25%.

With `Cc1cc(C)cc(N2C(=O)OC3(CN4CCC3CC4)C2=O)c1` (stereo not drawn) [Compound 20, 3′-(3,5-dimethylphenyl)-quinuclidine-3-spiro-5′-oxazolidine-2′,4′-dione trifluoroacetate salt], the “Aβ aggregation inhibition (%)” value at fluo-Aβ1-40 was found to be 0%. The “Inhibition of acetylcholine release” value in test [1] stood at 53%.

Turning to `CCOC(=O)c1cccc(N2C(=O)OC3(CN4CCC3CC4)C2=O)c1` (stereo not drawn) [Compound 13, 3′-(3-ethoxycarbonylphenyl)-quinuclidine-3-spiro-5′-oxazolidine-2′,4′-dione trifluoroacetate salt], the “Aβ aggregation inhibition (%)” value on fluo-Aβ1-40 is listed as 100%. Moreover, in test [1], the “Inhibition of acetylcholine release” value came out at 20%.

`O=C1OC2(CN3CCC2CC3)C(=O)N1c1cccc(C(F)(F)F)c1` (stereo not drawn) [Compound 1, 3′-(3-trifluoromethylphenyl)-quinuclidine-3-spiro-5′-oxazolidine-2′,4′-dione trifluoroacetate salt]: the “Aβ aggregation inhibition (%)” value at fluo-Aβ1-40 was 100%. Moreover, in test [1], the “Inhibition of acetylcholine release” value is listed as 36%.

For the compound `O=C1OC2(CN3CCC2CC3)C(=O)N1c1cccc([N+](=O)[O-])c1` (stereo not drawn) [Compound 6, 3′-(3-nitrophenyl)-quinuclidine-3-spiro-5′-oxazolidine-2′,4′-dione trifluoroacetate salt], the “Aβ aggregation inhibition (%)” value at fluo-Aβ1-40 is 21%. Further, the “Inhibition of acetylcholine release” value in test [1] stood at 64%.

As to `O=C1OC2(CN3CCC2CC3)C(=O)N1c1ccc(O)cc1` (stereo not drawn) [Compound 18, 3′-(4-hydroxyphenyl)-quinuclidine-3-spiro-5′-oxazolidine-2′,4′-dione trifluoroacetate salt], at fluo-Aβ1-40, the “Aβ aggregation inhibition (%)” value is 0%. The “Inhibition of acetylcholine release” value in test [1] was 23%.

As for `Cc1ccc(N2C(=O)OC3(CN4CCC3CC4)C2=O)cc1` (stereo not drawn) [Compound 2, 3′-(4-methylphenyl)-quinuclidine-3-spiro-5′-oxazolidine-2′,4′-dione trifluoroacetate salt], the “Aβ aggregation inhibition (%)” value at fluo-Aβ1-40 amounted to 44%. The “Inhibition of acetylcholine release” value in test [1] came out at 74%.

For the compound `O=C1OC2(CN3CCC2CC3)C(=O)N1c1ccccc1F` (stereo not drawn) [Compound 9, 3′-(2-fluorophenyl)-quinuclidine-3-spiro-5′-oxazolidine-2′,4′-dione trifluoroacetate salt], the “Aβ aggregation inhibition (%)” value at fluo-Aβ1-40 worked out at 100%. Also, the “Inhibition of acetylcholine release” value in test [1] is listed as 16%.

As to `Cc1ccc(N2C(=O)OC3(CN4CCC3CC4)C2=O)cc1Cl` (stereo not drawn) [Compound 24, 3′-(3-chloro-4-methylphenyl)-quinuclidine-3-spiro-5′-oxazolidine-2′,4′-dione trifluoroacetate salt], at fluo-Aβ1-40, the “Aβ aggregation inhibition (%)” value is 40%. In addition, the “Inhibition of acetylcholine release” value in test [1] is listed as 44%.

On to `Cc1ccccc1N1C(=O)OC2(CN3CCC2CC3)C1=O` (stereo not drawn) [Compound 26, 3′-(2-methylphenyl)-quinuclidine-3-spiro-5′-oxazolidine-2′,4′-dione trifluoroacetate salt], for which the “Aβ aggregation inhibition (%)” value on fluo-Aβ1-40 turned out to be 45%. In addition, the “Inhibition of acetylcholine release” value in test [1] came out at 54%.

On to `N=C1CC2(CN3CCC2CC3)OC(=O)N1c1cc(Cl)cc(Cl)c1` (stereo not drawn) [Compound 107, 3′-(3,5-dichlorophenyl)-quinuclidine-3-spiro-4′-iminooxan-2-ones trifluoroacetate salt], for which the “Aβ aggregation inhibition (%)” value on fluo-Aβ1-40 was 30%. In addition, the “Inhibition of acetylcholine release” value in test [1] is recorded as 54%.

Turning to `Cc1ccc(C)c(N2C(=O)OC3(CN4CCC3CC4)C2=O)c1` (stereo not drawn) [Compound 11, 3′-(2,5-dimethyphenyl)-quinuclidine-3-spiro-5′-oxazolidine-2′,4′-dione trifluoroacetate salt], the “Aβ aggregation inhibition (%)” value at fluo-Aβ1-40 was determined as 0%. Besides, the “Inhibition of acetylcholine release” value in test [1] was 71%.

Take `Cc1ccc(N2C(=O)OC3(CN4CCC3CC4)C2=O)cc1C` (stereo not drawn) [Compound 16, 3′-(3,4-dimethylphenyl)-quinuclidine-3-spiro-5′-oxazolidine-2′,4′-dione trifluoroacetate salt]: the “Aβ aggregation inhibition (%)” value at fluo-Aβ1-40 turned out to be 67%. Besides, in test [1], the “Inhibition of acetylcholine release” value is 44%.

On to `O=C1OC2(CN3CCC2CC3)C(=O)N1c1cc(Cl)ccc1Cl` (stereo not drawn) [Compound 12, 3′-(2,5-dichlorophenyl)-quinuclidine-3-spiro-5′-oxazolidine-2′,4′-dione trifluoroacetate salt], for which, at fluo-Aβ1-40, the “Aβ aggregation inhibition (%)” value stood at 85%. In test [1], the “Inhibition of acetylcholine release” value was determined as 17%.

Consider `O=C1OC2(CN3CCC2CC3)C(=O)N1c1cc(Cl)cc(Cl)c1` (stereo not drawn) [Compound 7, 3′-(3,5-dichlorophenyl)-quinuclidine-3-spiro-5′-oxazolidine-2′,4′-dione trifluoroacetate salt], for which the “Aβ aggregation inhibition (%)” value on fluo-Aβ1-40 amounted to 62%. Further, the “Inhibition of acetylcholine release” value in test [1] came to 70%.

`O=C1OC2(CN3CCC2CC3)C(=O)N1c1cccc(F)c1` (stereo not drawn) [Compound 25, 3′-(3-fluorophenyl)-quinuclidine-3-spiro-5′-oxazolidine-2′,4′-dione trifluoroacetate salt]: the “Aβ aggregation inhibition (%)” value at fluo-Aβ1-40 turned out to be 5%. In addition, the “Inhibition of acetylcholine release” value in test [1] turned out to be 48%.

For the compound `N=C1CC2(CN3CCC2CC3)OC(=O)N1c1cccc(Cl)c1` (stereo not drawn) [Compound 108, 3′-(3-chlorophenyl)-quinuclidine-3-spiro-4′-iminooxan-2-ones trifluoroacetate salt], the “Aβ aggregation inhibition (%)” value at fluo-Aβ1-40 is given as 70%. Further, the “Inhibition of acetylcholine release” value in test [1] stood at 63%.

`COc1ccc(OC)c(N2C(=O)OC3(CN4CCC3CC4)C2=O)c1` (stereo not drawn) [Compound 29, 3′-(2,5-dimethoxyphenyl)-quinuclidine-3-spiro-5′-oxazolidine-2′,4′-dione trifluoroacetate salt]: the “Aβ aggregation inhibition (%)” value at fluo-Aβ1-40 is on record as 100%. For the same compound, in test [1], the “Inhibition of acetylcholine release” value is listed as 20%.

In the case of `N=C1CC2(CN3CCC2CC3)OC(=O)N1c1ccc(Cl)c(Cl)c1` (stereo not drawn) [Compound 104, 3′-(3,4-dichlorophenyl)-quinuclidine-3-spiro-4′-iminooxan-2-ones trifluoroacetate salt], the “Aβ aggregation inhibition (%)” value at fluo-Aβ1-40 amounted to 0%. Moreover, the “Inhibition of acetylcholine release” value in test [1] was 43%.

In the case of `O=C1OC2(CN3CCC2CC3)C(=O)N1c1ccc(F)cc1F` (stereo not drawn) [Compound 21, 3′-(2,4-difluorophenyl)-quinuclidine-3-spiro-5′-oxazolidine-2′,4′-dione trifluoroacetate salt], the “Aβ aggregation inhibition (%)” value at fluo-Aβ1-40 was determined as 1%. For the same compound, the “Inhibition of acetylcholine release” value in test [1] was 17%.

As to `CC(C)c1ccccc1N1C(=O)OC2(CN3CCC2CC3)C1=O` (stereo not drawn) [Compound 28, 3′-(2-isopropylphenyl)-quinuclidine-3-spiro-5′-oxazolidine-2′,4′-dione trifluoroacetate salt], the “Aβ aggregation inhibition (%)” value at fluo-Aβ1-40 is recorded as 0%. Besides, the “Inhibition of acetylcholine release” value in test [1] is reported as 47%.

Take `O=C1OC2(CN3CCC2CC3)C(=O)N1c1cccc(O)c1` (stereo not drawn) [Compound 15, 3′-(3-hydroxyphenyl)-quinuclidine-3-spiro-5′-oxazolidine-2′,4′-dione trifluoroacetate salt]: the “Aβ aggregation inhibition (%)” value on fluo-Aβ1-40 was 50%. Besides, in test [1], the “Inhibition of acetylcholine release” value is recorded as 55%.
